Structures are written as SMILES. Counter-ions that a name gives are not always drawn.

The record followed here is patent US20070238785A1, “Use of an anti-atherothrombotic compound in obtaining medicaments intended for the treatment of vascular disorders” (priority 2006, published 2007).

The test system of one test is carotid thrombosis. Kind of test: models of carotid thrombosis in vivo and ex vivo (occlusion time). The conditions noted are these: carotid thrombosis: vascular electrolysis (dog), mechanical lesion (guinea pig), electric stimulation (rat), ex vivo carotid-carotid arterial bypass by glass capillary.
Another test has as its system atherosclerotic lesion. Kind of test: experimental models of anti-proliferative, anti-atheromatous and anti-inflammatory effects. Type of test: in vivo.
The test system of test [1] is sodium-loaded SHR-SP rat. Briefly: survival study in sodium-loaded SHR-SP rat. Format: in vivo. Conditions: 30 mg/kg/day in food, 1% NaCl in drinking water, from 10 weeks of age; Carrier group 57 days. Here is the method:
(§1) 10-week old male SHR-SP rats (Charles River) being given 1% NaCl in their drinking water were separated into two groups in random manner and were treated, or not, with the sodium salt of the (R) isomer of the compound of formula (I) (30 mg/kg/day) incorporated in their food.
In a first study, the survival of each group was determined by calculating the percentage of animals alive each day after the start of treatment.
(§2) The results are reported as the mean±S.E.M. Differences are considered significant when P<0.05 after a Student's t test. The survival of the animals is represented on a Kaplan-Meier graph and the results are considered significant when P<0.05 after a log-rank test.

For test [2], the system named is sodium-loaded SHR-SP rat. Kind of test: 5-week study in sodium-loaded SHR-SP rat (cardiac hypertrophy, urinary 8-OH-dG, plasma thiostatin). Type of test: in vivo. The conditions noted are these: 30 mg/kg/day in food, 5 weeks, compared to Carrier group. Here is the method:
as §1
In a second study, the rats were monitored over 5 weeks, between 10 and 15 weeks of age, and were then sacrificed in order to quantify a urinary marker of oxidative stress (8-OH-dG) and a plasma marker reflecting acute inflammation (thiostatin, which in the rat is the equivalent of CRP) and in order to determine cardiac hypertrophy.
During the last 24 hours of monitoring, the animals were placed in individual metabolic cages and the urines were collected in sterile tubes (200 μl of 2 mM EDTA). Diuresis was measured and the production of 8-hydroxy-2′-deoxyguanosine (8-OH-dG) was quantified by ELISA assay (Oxis, Bioxytech).
The rats were anaesthetised by intraperitoneal injection of pentobarbital sodium (50 mg/kg, Ceva laboratories). Blood was sampled from the carotid artery (sampling into heparin 5000 IU/ml) in order to measure thiostatin production by ELISA assay (Life Diagnostics). The heart was excised, dried and weighed, and cardiac hypertrophy was determined by dividing the weight of the dry heart by the body weight for each animal in order to standardise the measurement.
as §2

The test system of the next test is thrombus. Briefly: ex vivo anti-thrombotic activity, perfusion chamber model, in patients at high risk of ischaemic CVA. An excerpt:
In this study, the sodium salt of the (R) isomer of the compound of formula (I) also has an effect on the measured markers of inflammation (sVCAM, sPAI-1, sP-selectin, thrombomodulin).

In a further test the test system is radial artery. Briefly: peripheral vasomotor response, provoked hyperaemia test in atheromatous patients. The conditions noted are these: versus placebo, patients treated with aspirin; whatever the dose, single or repeated administration (15 days), about 2 hours after administration. Type of test: in vivo. As to the method: This superiority is observed whatever the dose, after single administration or repeated administration (15 days), the vasodilatory effect being evaluated about 2 hours after administration of the medicament.

The mark [3] stands for this setting: after 10 days of administration, compared with aspirin.

As for `Cc1ccc2c(c1CCC(=O)O)CCC(NS(=O)(=O)c1ccc(Cl)cc1)C2` [sodium salt of the (R) isomer of the compound of formula (I), 3-{6-[(4-chlorophenylsulphonyl)amino]-2-methyl-5,6,7,8-tetrahydro-naphth-1-yl}propionic acid], the occlusion time entry with carotid thrombosis is on record as “lengthens the occlusion time in dose-dependent manner”. For the same molecule, in the test on atherosclerotic lesion, the “expression of adhesion molecules and markers such as endothelin, ICAM and VCAM” value is on record as “inhibits”; the “infiltration of macrophages into the vascular wall” value was “inhibits”; the intima/media ratio entry is given as “significantly reduces”; the serum cholesterol result is reported as “without reducing”. Further, in the test with atherosclerotic lesion, the “surface area of the atherosclerotic lesion” value is “significantly reduces” and the “thickness of the vascular wall” value is on record as “significantly reduces”. Besides, in the test with sodium-loaded SHR-SP rat [1], the “time after which half the rats were dead (survival)” value is 99 days. In the test on sodium-loaded SHR-SP rat [2], the “cardiac hypertrophy (dry heart weight / body weight)” value is reported as “less marked”, the “plasma thiostatin (acute inflammation)” value is on record as “lower” and the “total amount of 8-OH-dG in urines over 24 hours (oxidative stress)” value is recorded as “reduced”. Further, in the test on thrombus (setting [3]), the “% adhesion” value is given as “superiority”, the “dense surface area of the thrombus” value is listed as “superiority” and the “total surface area of the thrombus” value was “superiority”. Moreover, the “measured markers of inflammation (sVCAM, sPAI-1, sP-selectin, thrombomodulin)” value with thrombus (patients at high risk of ischaemic CVA) was “has an effect”. Further, the endothelium-dependent vasodilation result with radial artery is “superiority”.
